{"source": "PubChem BioAssay AID1963958", "about": "(Molecular Pharmacology Branch, DTP, NCI, 2024)", "tested_on": "MDA-MB-231 multicell spheroids, viability", "test": "Anticancer human tumor MDA-MB-231 cell line growth inhibition [PI3K];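 as to all read-outs here: spheroids exposed to agents for seven days before reading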;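 as to viability, T/C: percent of vehicle control luminescence with DMSO treated spheroids as 100%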", "details": "for IC50: curve of first compound; for viability, T/C: stronger effect = lower value", "procedure,_shortened": "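Multi-cell spheroids combine tumor cells with HUVEC and human MSCs, treated with targeted agents alone or with inavolisib, alpelisib, duvelisib or copanlisib. Concentrations fall in half-log steps from at or near clinical Cmax, or from 10 microM where Cmax is unknown; viability read-out.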", "key": {"[1]": {"details": "second compound 0.00316 µM, first compound 0.0316 µM"}, "[2]": {"details": "second compound 0.00316 µM, first compound 0.1 µM"}, "[3]": {"details": "second compound 0.00316 µM, first compound 0.316 µM"}, "[4]": {"details": "second compound 0.00316 µM, first compound 1 µM"}, "[5]": {"details": "second compound 0.01 µM, first compound 0.0316 µM"}, "[6]": {"details": "second compound 0.01 µM, first compound 0.1 µM"}, "[7]": {"details": "second compound 0.01 µM, first compound 0.316 µM"}, "[8]": {"details": "second compound 0.01 µM, first compound 1 µM"}, "[9]": {"details": "second compound 0.0316 µM, first compound 0.0316 µM"}, "[10]": {"details": "second compound 0.0316 µM, first compound 0.1 µM"}, "[11]": {"details": "second compound 0.0316 µM, first compound 0.316 µM"}, "[12]": {"details": "second compound 0.0316 µM, first compound 1 µM"}, "[13]": {"details": "second compound 0.1 µM, first compound 0.0316 µM"}, "[14]": {"details": "second compound 0.1 µM, first compound 0.1 µM"}, "[15]": {"details": "second compound 0.1 µM, first compound 0.316 µM"}, "[16]": {"details": "second compound 0.1 µM, first compound 1 µM"}, "[17]": {"details": "second compound 0.316 µM, first compound 0.0316 µM"}, "[18]": {"details": "second compound 0.316 µM, first compound 0.1 µM"}, "[19]": {"details": "second compound 0.316 µM, first compound 0.316 µM"}, "[20]": {"details": "second compound 0.316 µM, first compound 1 µM"}, "[21]": {"details": "second compound 1 µM, first compound 0.0316 µM"}, "[22]": {"details": "second compound 1 µM, first compound 0.1 µM"}, "[23]": {"details": "second compound 1 µM, first compound 0.316 µM"}, "[24]": {"details": "second compound 1 µM, first compound 1 µM"}}, "data": [{"smiles": "CC(C)NCC(C(=O)N1CCN(c2ncnc3c2C(C)CC3O)CC1)c1ccc(Cl)cc1", "note": "(centres undefined) + COc1c(OCCCN2CCOCC2)ccc2c3n(c(=NC(=O)c4cnc(N)nc4)nc12)CCN3", "values": [{"measurement": "IC50", "setting": "second compound 0.00316 µM", "value": 7260, "unit": "nM"}, {"measurement": "IC50", "setting": "second compound 0.01 µM", "value": 4830, "unit": "nM"}, {"measurement": "IC50", "setting": "second compound 0.0316 µM", "value": 1840, "unit": "nM"}, {"measurement": "IC50", "setting": "second compound 0.1 µM", "value": "< 31.6", "unit": "nM"}, {"measurement": "IC50", "setting": "second compound 0.316 µM", "value": "< 31.6", "unit": "nM"}, {"measurement": "IC50", "setting": "second compound 1 µM", "value": "< 31.6", "unit": "nM"}, {"measurement": "viability, T/C", "setting": "[1]", "value": 96.1, "unit": "%"}, {"measurement": "viability, T/C", "setting": "[2]", "value": 93.7, "unit": "%"}, {"measurement": "viability, T/C", "setting": "[3]", "value": 83.5, "unit": "%"}, {"measurement": "viability, T/C", "setting": "[4]", "value": 74.6, "unit": "%"}, {"measurement": "viability, T/C", "setting": "second compound 0.00316 µM, first compound 3.16 µM", "value": 59.3, "unit": "%"}, {"measurement": "viability, T/C", "setting": "second compound 0.00316 µM, first compound 10 µM", "value": 46.3, "unit": "%"}, {"measurement": "viability, T/C", "setting": "[5]", "value": 81.8, "unit": "%"}, {"measurement": "viability, T/C", "setting": "[6]", "value": 81.4, "unit": "%"}, {"measurement": "viability, T/C", "setting": "[7]", "value": 69.2, "unit": "%"}, {"measurement": "viability, T/C", "setting": "[8]", "value": 62.6, "unit": "%"}, {"measurement": "viability, T/C", "setting": "second compound 0.01 µM, first compound 3.16 µM", "value": 54.7, "unit": "%"}, {"measurement": "viability, T/C", "setting": "second compound 0.01 µM, first compound 10 µM", "value": 43.4, "unit": "%"}, {"measurement": "viability, T/C", "setting": "[9]", "value": 61.6, "unit": "%"}, {"measurement": "viability, T/C", "setting": "[10]", "value": 59.1, "unit": "%"}, {"measurement": "viability, T/C", "setting": "[11]", "value": 55.8, "unit": "%"}, {"measurement": "viability, T/C", "setting": "[12]", "value": 56.3, "unit": "%"}, {"measurement": "viability, T/C", "setting": "second compound 0.0316 µM, first compound 3.16 µM", "value": 45.6, "unit": "%"}, {"measurement": "viability, T/C", "setting": "second compound 0.0316 µM, first compound 10 µM", "value": 33.9, "unit": "%"}, {"measurement": "viability, T/C", "setting": "[13]", "value": 48.5, "unit": "%"}, {"measurement": "viability, T/C", "setting": "[14]", "value": 48.7, "unit": "%"}, {"measurement": "viability, T/C", "setting": "[15]", "value": 45.6, "unit": "%"}, {"measurement": "viability, T/C", "setting": "[16]", "value": 39.3, "unit": "%"}, {"measurement": "viability, T/C", "setting": "second compound 0.1 µM, first compound 3.16 µM", "value": 37.9, "unit": "%"}, {"measurement": "viability, T/C", "setting": "second compound 0.1 µM, first compound 10 µM", "value": 28.9, "unit": "%"}, {"measurement": "viability, T/C", "setting": "[17]", "value": 32.9, "unit": "%"}, {"measurement": "viability, T/C", "setting": "[18]", "value": 34, "unit": "%"}, {"measurement": "viability, T/C", "setting": "[19]", "value": 31.2, "unit": "%"}, {"measurement": "viability, T/C", "setting": "[20]", "value": 30.1, "unit": "%"}, {"measurement": "viability, T/C", "setting": "second compound 0.316 µM, first compound 3.16 µM", "value": 25.5, "unit": "%"}, {"measurement": "viability, T/C", "setting": "second compound 0.316 µM, first compound 10 µM", "value": 18.7, "unit": "%"}, {"measurement": "viability, T/C", "setting": "[21]", "value": 23.8, "unit": "%"}, {"measurement": "viability, T/C", "setting": "[22]", "value": 23.7, "unit": "%"}, {"measurement": "viability, T/C", "setting": "[23]", "value": 24.9, "unit": "%"}, {"measurement": "viability, T/C", "setting": "[24]", "value": 23, "unit": "%"}, {"measurement": "viability, T/C", "setting": "second compound 1 µM, first compound 3.16 µM", "value": 24.8, "unit": "%"}, {"measurement": "viability, T/C", "setting": "second compound 1 µM, first compound 10 µM", "value": 18.8, "unit": "%"}]}, {"smiles": "CCN1CCN(Cc2ccc(Nc3ncc(F)c(-c4cc(F)c5nc(C)n(C(C)C)c5c4)n3)nc2)CC1", "note": "+ COc1c(OCCCN2CCOCC2)ccc2c3n(c(=NC(=O)c4cnc(N)nc4)nc12)CCN3", "values": [{"measurement": "IC50", "setting": "second compound 0.00316 µM", "value": 195, "unit": "nM"}, {"measurement": "IC50", "setting": "second compound 0.01 µM", "value": 65.4, "unit": "nM"}, {"measurement": "IC50", "setting": "second compound 0.0316 µM", "value": 8.45, "unit": "nM"}, {"measurement": "IC50", "setting": "second compound 0.1 µM", "value": "< 3.16", "unit": "nM"}, {"measurement": "IC50", "setting": "second compound 0.316 µM", "value": "< 3.16", "unit": "nM"}, {"measurement": "IC50", "setting": "second compound 1 µM", "value": "< 3.16", "unit": "nM"}, {"measurement": "viability, T/C", "setting": "second compound 0.00316 µM, first compound 0.00316 µM", "value": 89, "unit": "%"}, {"measurement": "viability, T/C", "setting": "second compound 0.00316 µM, first compound 0.01 µM", "value": 79.4, "unit": "%"}, {"measurement": "viability, T/C", "setting": "[1]", "value": 72.3, "unit": "%"}, {"measurement": "viability, T/C", "setting": "[2]", "value": 52.1, "unit": "%"}, {"measurement": "viability, T/C", "setting": "[3]", "value": 47.7, "unit": "%"}, {"measurement": "viability, T/C", "setting": "[4]", "value": 45.1, "unit": "%"}, {"measurement": "viability, T/C", "setting": "second compound 0.01 µM, first compound 0.00316 µM", "value": 77.8, "unit": "%"}, {"measurement": "viability, T/C", "setting": "second compound 0.01 µM, first compound 0.01 µM", "value": 66.2, "unit": "%"}, {"measurement": "viability, T/C", "setting": "[5]", "value": 57.2, "unit": "%"}, {"measurement": "viability, T/C", "setting": "[6]", "value": 46.5, "unit": "%"}, {"measurement": "viability, T/C", "setting": "[7]", "value": 39.7, "unit": "%"}, {"measurement": "viability, T/C", "setting": "[8]", "value": 40.2, "unit": "%"}, {"measurement": "viability, T/C", "setting": "second compound 0.0316 µM, first compound 0.00316 µM", "value": 56, "unit": "%"}, {"measurement": "viability, T/C", "setting": "second compound 0.0316 µM, first compound 0.01 µM", "value": 50.9, "unit": "%"}, {"measurement": "viability, T/C", "setting": "[9]", "value": 43.9, "unit": "%"}, {"measurement": "viability, T/C", "setting": "[10]", "value": 38.4, "unit": "%"}, {"measurement": "viability, T/C", "setting": "[11]", "value": 35.9, "unit": "%"}, {"measurement": "viability, T/C", "setting": "[12]", "value": 39.6, "unit": "%"}, {"measurement": "viability, T/C", "setting": "second compound 0.1 µM, first compound 0.00316 µM", "value": 45.1, "unit": "%"}, {"measurement": "viability, T/C", "setting": "second compound 0.1 µM, first compound 0.01 µM", "value": 40, "unit": "%"}, {"measurement": "viability, T/C", "setting": "[13]", "value": 33.4, "unit": "%"}, {"measurement": "viability, T/C", "setting": "[14]", "value": 27.9, "unit": "%"}, {"measurement": "viability, T/C", "setting": "[15]", "value": 31, "unit": "%"}, {"measurement": "viability, T/C", "setting": "[16]", "value": 38.1, "unit": "%"}, {"measurement": "viability, T/C", "setting": "second compound 0.316 µM, first compound 0.00316 µM", "value": 30, "unit": "%"}, {"measurement": "viability, T/C", "setting": "second compound 0.316 µM, first compound 0.01 µM", "value": 27.2, "unit": "%"}, {"measurement": "viability, T/C", "setting": "[17]", "value": 24.1, "unit": "%"}, {"measurement": "viability, T/C", "setting": "[18]", "value": 22.4, "unit": "%"}, {"measurement": "viability, T/C", "setting": "[19]", "value": 28, "unit": "%"}, {"measurement": "viability, T/C", "setting": "[20]", "value": 42.7, "unit": "%"}, {"measurement": "viability, T/C", "setting": "second compound 1 µM, first compound 0.00316 µM", "value": 24.6, "unit": "%"}, {"measurement": "viability, T/C", "setting": "second compound 1 µM, first compound 0.01 µM", "value": 22.5, "unit": "%"}, {"measurement": "viability, T/C", "setting": "[21]", "value": 22.4, "unit": "%"}, {"measurement": "viability, T/C", "setting": "[22]", "value": 25.5, "unit": "%"}, {"measurement": "viability, T/C", "setting": "[23]", "value": 43.7, "unit": "%"}, {"measurement": "viability, T/C", "setting": "[24]", "value": 83.2, "unit": "%"}]}]}
